Converted amounts (≈) assume the structure as drawn.
Assays:
[1] = target: T1, human KDR (Homo sapiens, UniProt P35968); assay: VEGF Receptor Kinase Assay; assay type: biochemical
T1 construct: cloning the cytoplasmic domain of the KDR kinase as an in frame fusion at the carboxy terminus of the GST gene; made in house; host or cells: Spodoptera frugiperda (Sf21) insect cells, baculovirus vector pAcG2T
Protocol: VEGF receptor kinase activity is measured by incorporation of radio-labeled phosphate into polyglutamic acid, tyrosine, 4:1 (pEY) substrate. The phosphorylated pEY product is trapped onto a filter membrane and the incorporation of radio-labeled phosphate quantified by scintillation counting.
The intracellular tyrosine kinase domains of human KDR (Terman, B. I. et al. Oncogene (1991) vol. 6, pp. 1677-1683.) and Flt-1 (Shibuya, M. et al. Oncogene (1990) vol. 5, pp. 519-524) were cloned as glutathione S-transferase (GST) gene fusion proteins. This was accomplished by cloning the cytoplasmic domain of the KDR kinase as an in frame fusion at the carboxy terminus of the GST gene. Soluble recombinant GST-kinase domain fusion proteins were expressed in Spodoptera frugiperda (Sf21) insect cells (Invitrogen) using a baculovirus expression vector (pAcG2T, Pharmingen).
1) Add 5 μl of inhibitor or control to the assay in 50% DMSO.
2) Add 35 μl of reaction mix containing 5 μl of 10× reaction buffer, 5 μl 25 mM ATP/10 μCi [^33P]ATP (Amersham), and 5 μl 10× substrate.
3) Start the reaction by the addition of 10 μl of KDR (25 nM) in enzyme dilution buffer.
4) Mix and incubate at room temperature for 15 minutes.
5) Stop by the addition of 50 μl stop solution.
6) Incubate for 15 minutes at 4° C.
7) Transfer a 90 μl aliquot to filter plate.
8) Aspirate and wash 3 times with wash solution. […]

[2] = physchem; details: thermodynamic from solid, room temperature

T1 sequence (P35968 786-1356 limits assumed): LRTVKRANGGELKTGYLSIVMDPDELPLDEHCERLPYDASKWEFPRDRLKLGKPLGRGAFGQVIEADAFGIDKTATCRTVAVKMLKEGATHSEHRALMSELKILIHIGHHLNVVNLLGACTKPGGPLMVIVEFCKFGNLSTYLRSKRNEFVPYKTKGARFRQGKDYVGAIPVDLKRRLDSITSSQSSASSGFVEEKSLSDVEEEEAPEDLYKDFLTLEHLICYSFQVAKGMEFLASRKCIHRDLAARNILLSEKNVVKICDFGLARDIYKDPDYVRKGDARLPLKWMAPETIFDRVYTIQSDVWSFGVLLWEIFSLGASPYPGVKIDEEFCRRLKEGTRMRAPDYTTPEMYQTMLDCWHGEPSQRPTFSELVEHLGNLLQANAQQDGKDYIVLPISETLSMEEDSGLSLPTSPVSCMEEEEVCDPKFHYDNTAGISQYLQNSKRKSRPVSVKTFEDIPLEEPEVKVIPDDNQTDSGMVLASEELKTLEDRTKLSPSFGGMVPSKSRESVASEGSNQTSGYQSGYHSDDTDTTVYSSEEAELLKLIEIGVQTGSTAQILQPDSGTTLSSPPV

SMILES	kinase inhibitory activity [1]	solubility ([2]; 50% aqueous IPA, aqueous with cosolvent or surfactant or cyclodextrin) [mg/mL]	solubility ([2]; 50% aqueous ethanol, aqueous with cosolvent or surfactant or cyclodextrin) [mg/mL]	solubility ([2]; water, pH 2.9, water) [mg/mL]
CNC(=O)N1CCN(Cc2ccnc(Nc3ncc(C#N)s3)c2)CC1 [Compound 4-4, 4-[2-(5-cyano-thiazol-2-ylamino)-pyridin-4-ylmethyl]-piperazine-1-carboxylic acid methylamide]	inhibits the kinase KDR	–	–	–
CNC(=O)N1CCN(Cc2ccnc(Nc3ncc(C#N)s3)c2)CC1 [Form C, 4-[2-(5-cyano-thiazol-2-ylamino)-pyridin-4-ylmethyl]-piperazine-1-carboxylic acid methylamide]	–	12.3 (≈ 34.4 mM)	10.4 (≈ 29.1 mM)	6 (≈ 16.8 mM)

Reference: patent US20040023981A1, “Salt forms with tyrosine kinase activity” (priority 2002, published 2004)
